From ChEMBL document CHEMBL4396869, “Design and Synthesis of Selective Phosphodiesterase 4D (PDE4D) Allosteric Inhibitors for the Treatment of Fragile X Syndrome and Other Brain Disorders” (J Med Chem, 2019)
pIC50: −log10 of the molar value.

Key:
[1] = (§1) Inhibition of recombinant human His6-tagged PDE4D7 UCR1 S129D mutant expressed in baculovirus infected Sf9 insect cells using cAMP as substrate preincubated for 5 to 10 mins followed by substrate addition and measured for 10 mins by yeast myokinase/pyruvate kinase/lactate dehydrogenase-coupled fluorescence assay
[2] = as §1, with “human wild-type” for “human”, “domain (S129 residues)” for “S129D mutant”
Homo sapiens [3] = species: Homo sapiens; test: Selectivity ratio of IC50 for recombinant human His6-tagged PDE4B1 UCR1 S133D mutant expressed in baculovirus infected Sf9 insect cells to IC50 for recombinant human His6-tagged PDE4D7 UCR1 S129D mutant expressed in baculovirus infected Sf9 insect cells
[4] = molecular target: 3',5'-cyclic-AMP phosphodiesterase 4B (Homo sapiens, UniProt Q07343, S133D); test: as §1, with “PDE4B1” for “PDE4D7”, “S133D” for “S129D”
3',5'-cyclic-AMP phosphodiesterase 4B, sequence (Q07343 whole entry S133D, the tested form may be a part): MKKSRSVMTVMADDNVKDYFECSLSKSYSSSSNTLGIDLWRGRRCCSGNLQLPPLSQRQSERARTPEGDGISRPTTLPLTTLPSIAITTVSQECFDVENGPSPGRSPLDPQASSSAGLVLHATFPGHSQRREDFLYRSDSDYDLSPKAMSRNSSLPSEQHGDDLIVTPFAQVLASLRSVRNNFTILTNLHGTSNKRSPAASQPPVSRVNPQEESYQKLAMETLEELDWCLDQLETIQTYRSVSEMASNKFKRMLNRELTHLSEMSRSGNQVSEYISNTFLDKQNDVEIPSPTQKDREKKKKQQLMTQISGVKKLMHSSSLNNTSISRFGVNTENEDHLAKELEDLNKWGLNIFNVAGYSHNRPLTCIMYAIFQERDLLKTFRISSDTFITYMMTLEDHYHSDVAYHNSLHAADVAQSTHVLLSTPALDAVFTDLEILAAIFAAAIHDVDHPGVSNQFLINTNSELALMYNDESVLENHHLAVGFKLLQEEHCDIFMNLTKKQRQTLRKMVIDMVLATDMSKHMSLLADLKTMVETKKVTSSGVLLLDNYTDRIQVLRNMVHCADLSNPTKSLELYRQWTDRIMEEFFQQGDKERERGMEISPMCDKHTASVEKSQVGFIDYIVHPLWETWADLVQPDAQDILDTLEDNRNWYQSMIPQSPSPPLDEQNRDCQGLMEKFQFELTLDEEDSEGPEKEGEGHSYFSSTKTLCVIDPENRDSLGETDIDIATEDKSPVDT

Homo sapiens [5] = species: Homo sapiens; test: Selectivity ratio of IC50 for recombinant human wild-type His6-tagged PDE4D7 UCR1 domain (S129 residues) expressed in baculovirus infected Sf9 insect cells to IC50 for recombinant human His6-tagged PDE4D7 UCR1 S129D mutant expressed in baculovirus infected Sf9 insect cells

Structure (SMILES) | pIC50 [1] | pIC50 [2] | Ratio IC50 (Homo sapiens [3]) | pIC50 [4] | Ratio IC50 (Homo sapiens [5])
CCc1nc(Nc2ccc(CCO)cc2)nc(-c2cccc(Cl)c2)n1 | 9.30 | 6.99 | 48 | 7.62 | 204
CCc1nc(Nc2ccc(CCCO)cc2)nc(-c2cccc(Cl)c2)n1 | 9.70 | 7.57 |  | 7.96 | 
OCCc1cccc(Nc2cc(-c3cccc(Cl)c3)nc3c2CCC3)c1 | 6.65 | 5.20 |  | 5.85 | 
CCc1nc(Nc2ccc(CO)cc2)nc(-c2cccc(Cl)c2)n1 | 7.92 | 6.45 |  | 6.98 | 
CCc1cc(Oc2ccc(CC(N)=O)cc2)nc(-c2cccc(Cl)c2)n1 | 7.46 | 5.61 |  | 6.02 | 
CCc1nc(Nc2ccc(CC(N)=O)cc2)nc(-c2cccc(Cl)c2)n1 | 8.30 | 6.69 | 10 | 7.32 | 41
NC(=O)Cc1ccc(Cc2cc(-c3cccc(Cl)c3)nc3c2CCC3)cc1 | 8.07 | 6.09 |  | 6.86 | 
CCc1cc(Nc2ccc(CC(N)=O)cc2)nc(-c2cccc(Cl)c2)n1 | 8.59 | 6.84 | 17 | 7.37 | 56
CCc1nc(Nc2ccc(C(C)C(=O)O)cc2)nc(-c2cccc(Cl)c2)n1 (configuration not stated) | 7.02 | < 5.00 | 11 | 5.96 | 
NC(=O)Cc1ccc(Nc2cc(-c3cccc(Cl)c3)nc3c2CCC3)cc1 | 7.38 | 5.78 | 3 | 6.87 | 40
CCc1cc(Cc2ccc(CCO)cc2)nc(-c2cccc(Cl)c2)n1 | 8.70 | 6.27 |  | 6.23 | 
CCc1nc(Nc2ccc(CC(=O)O)cc2)nc(-c2cccc(Cl)c2)n1 | 6.17 | 5.39 | 1 | 6.11 | 6
OCCc1ccc(Nc2cc(-c3cccc(Cl)c3)nc3c2CCC3)cc1 | 8.05 | 5.68 | 60 | 6.25 | 226
